Measured values reported in publication PMC8688152, “Distinct classes of potassium channels fused to GPCRs as electrical signaling biosensors” (Cell Reports Methods, 2021).

Key:
M2_Kcv-09-03 = target: T1, M2_Kcv-09-03 (UniProt P08172+Q84568); assay: TEVC recording of M2_Kcv-09-03 ICCR expressed in Xenopus oocytes; format: cell-based, human (M2), Paramecium bursaria chlorella virus 1 (Kcv)
T1 construct: expressed in transfected cells; host or cells: Xenopus oocytes (mRNA injection)
T1 sequence (P08172+Q84568 with tags, fused parts or gaps): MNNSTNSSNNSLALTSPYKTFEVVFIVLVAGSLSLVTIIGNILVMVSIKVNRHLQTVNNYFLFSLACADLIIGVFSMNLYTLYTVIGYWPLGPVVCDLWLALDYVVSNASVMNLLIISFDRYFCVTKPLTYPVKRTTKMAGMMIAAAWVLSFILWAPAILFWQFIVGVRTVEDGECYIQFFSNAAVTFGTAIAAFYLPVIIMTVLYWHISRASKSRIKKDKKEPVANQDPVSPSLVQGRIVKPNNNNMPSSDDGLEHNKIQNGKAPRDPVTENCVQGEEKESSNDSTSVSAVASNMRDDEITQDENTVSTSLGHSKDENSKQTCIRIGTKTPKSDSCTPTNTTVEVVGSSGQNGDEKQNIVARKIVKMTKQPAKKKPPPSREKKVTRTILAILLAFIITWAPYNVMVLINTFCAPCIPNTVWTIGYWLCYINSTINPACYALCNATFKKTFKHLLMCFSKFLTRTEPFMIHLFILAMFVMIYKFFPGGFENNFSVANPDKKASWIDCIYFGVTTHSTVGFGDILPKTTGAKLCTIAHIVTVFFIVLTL
Protocol: (§1) Microelectrodes were filled with […]. […] The membrane voltage was clamped to −50 mV.

M2_T-00-43 [1] = target: T2, M2_T-00-43 (UniProt P08172+P97438); assay: TEVC recording of M2_T-00-43 ICCR in Xenopus oocytes; format: cell-based, human (M2), mouse (TREK-1); design: full-length (−00) or M2 deleted of its last nine residues (−09) in the indicated ICCRs; expressed in transfected cells; host or cells: Xenopus oocytes (mRNA injection)
T2 sequence (P08172+P97438 with tags, fused parts or gaps): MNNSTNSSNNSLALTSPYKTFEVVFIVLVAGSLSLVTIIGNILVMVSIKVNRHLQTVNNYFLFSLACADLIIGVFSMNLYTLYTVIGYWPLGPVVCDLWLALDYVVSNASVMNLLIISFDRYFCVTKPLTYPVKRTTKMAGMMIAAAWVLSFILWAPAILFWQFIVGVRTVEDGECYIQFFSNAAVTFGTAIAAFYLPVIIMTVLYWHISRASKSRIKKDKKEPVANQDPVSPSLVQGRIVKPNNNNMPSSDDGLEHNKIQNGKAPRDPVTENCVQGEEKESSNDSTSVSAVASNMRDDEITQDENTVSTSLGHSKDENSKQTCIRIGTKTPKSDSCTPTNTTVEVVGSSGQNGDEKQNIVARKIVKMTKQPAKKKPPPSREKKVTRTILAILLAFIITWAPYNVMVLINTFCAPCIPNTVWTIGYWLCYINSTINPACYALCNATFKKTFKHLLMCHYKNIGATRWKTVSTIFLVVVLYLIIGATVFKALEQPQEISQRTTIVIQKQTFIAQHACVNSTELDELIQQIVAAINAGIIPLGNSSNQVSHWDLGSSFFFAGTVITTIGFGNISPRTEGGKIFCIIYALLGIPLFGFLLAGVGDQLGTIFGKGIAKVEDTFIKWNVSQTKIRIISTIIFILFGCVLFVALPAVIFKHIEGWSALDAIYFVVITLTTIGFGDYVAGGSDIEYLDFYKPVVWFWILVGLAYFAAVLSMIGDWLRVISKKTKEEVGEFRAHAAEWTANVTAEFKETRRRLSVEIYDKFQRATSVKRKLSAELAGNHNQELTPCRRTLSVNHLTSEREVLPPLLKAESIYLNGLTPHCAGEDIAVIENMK
Protocol: (§2) Xenopus oocytes were prepared as previously reported ([Moreau et al., 2008]). Briefly, after surgical retrieval, the oocytes were defolliculated by type 1A collagenase. Each oocyte was injected with 50 nl of RNAse-free water containing the desired mRNAs. The mRNA quantities used per oocyte were: ICCR with Kcv, 2.7 ng (M2_Kcv and D2_Kcv) and 2.9 ng (OXTR_Kcv); ICCR with mTREK-1, 4.2 ng; ICCR with Kir6.2, 4.3 ng; M2, 2.3 ng; D2, 2.2 ng; Kir3.4T, 2.2 ng; Kcv 0.46 ng and mTREK-1, 2.1 ng. Microinjected oocytes were incubated 2 to 3 days at 19°C in modified-Barth's solution (in mM: 1 KCl, 0.82 MgSO4, 88 NaCl, 2.4 NaHCO3, 0.41 CaCl2, 16 HEPES, pH 7.4) supplemented with 100 U.ml^−1 of penicillin and streptomycin and 0.1 mg.mL^−1 of gentamycin. Animal handling and experiments fully conformed to European regulations and were approved by the French Ministry of Higher Education and Research (APAFIS#4420-2016030813053199 v4 to CM). Authorization of the animal facility has been delivered by the Prefect of Isere (Authorization #D 38 185 10 001).
(§3) Two-electrode voltage-clamp (TEVC) recordings were performed automatically with HiClamp robots (MultiChannel Systems). These TEVC robots rapidly change the applied solutions by transferring the oocytes in different wells of a 96-well plate. […] Microelectrodes were filled with […]. During recordings, oocytes were incubated in low potassium concentration buffer (ND96, in mM: 96 NaCl, 2 KCl, 1.8 CaCl2, 1 MgCl2, 5 HEPES, pH 7.4 supplemented with 0.3 niflumic acid), and in high potassium buffer (in mM: 91 KCl, 1.8 CaCl2, 1 MgCl2, 5 HEPES, 0.3 niflumic acid, pH 7.4). The membrane voltage was clamped to −50 mV. Ligands and BaCl2 were diluted in the high potassium buffer. […] Ligand effects were measured in high potassium concentration buffer with the membrane potential clamped to −50 mV and at 19°C.
(§4) Change of potassium current induced by ligand was calculated either with the barium-sensitive currents as a 0-reference for Kcv-based ICCRs or with the currents in ND96 for mTREK-1 ICCRs. Softwares created by Michel Vivaudou ([Vivaudou, 2019]) were used to extract the raw data.

M2_Kir6.2-09-25 = system: M2_Kir6.2-09-25; design: method as in Moreau et al., 2017; details: Kir6.2 ICCRs; ref Moreau et al., 2017; read-out: IC50 observed with Kir6.2 ICCRs; cited from earlier work
mTREK-1 −43 = target: T3, mTREK-1 −43 (Mus musculus, UniProt P97438); assay: TEVC control: unfused N-terminally truncated mTREK-1 −43; format: cell-based; details: 10 μM BL1249, TEVC
T3 construct: expressed in transfected cells; host or cells: Xenopus oocytes (mRNA injection); gene synthesized by GeneCust
Protocol: as §1

M2_T-00-43 [2] = target: T2, M2_T-00-43; assay: Whole-cell patch-clamp on HEK293 cells expressing M2_T-00-43; format: cell-based, human (M2), mouse (TREK-1); design: expressed in transfected cells; host or cells: HEK293 (pIRES2-eGFP vector)
Protocol: HEK293 cells were grown in 75-mm tissue-culture dishes (Falcon, Franklin Lakes, NJ) in Dulbecco’s modified Eagle’s medium (Gibco, Life Technologies, Saint Aubin, France) supplemented with 10% fetal calf serum (Hyclone, Thermo Fisher Scientific GMBH, Ulm, Germany) and 1% penicillin/streptomycin (Gibco, Life Technologies, Saint Aubin, France) in a humidified incubator at 37 °C (5% CO2). For electrophysiology of ICCRs, […] of plasmid was transfected using Jet-PEI (PolyPlus Transfection, Illkirch FRANCE) according to the manufacturer’s instructions. Cells were plated onto 35-mm dishes 24 h before transfection, and experiments were performed over the following 1–2 days.
Pipettes were pulled from hematocrit-capillaries (Hirschmann Laborgeraete, Germany) using a vertical puller (PC-10, Narishige International, London, United Kingdom), and had resistances of 3–6 MΩ when filled with internal solution and measured in standard bath solution. Whole cell membrane currents were measured and filtered at 3 kHz by a MultiClamp 700A patch clamp amplifier (Molecular Devices), and digitized at 10 kHz using a 12-bit analog-to-digital converter Digidata-1322A (Axon Instrument, Sunnyvale, CA, United States). Recordings were done using Clampex 9 software (Axon Instrument). […]

OXTR[T4L]_Kcv-42-03 = assay: TEVC recording of OXTR[T4L]_Kcv-42-03 in Xenopus oocytes; format: cell-based, human (OXTR), Paramecium bursaria chlorella virus 1 (Kcv)
Protocol: as §2, with “Authorization of the animal facility has been delivered by the Prefect of Isere (Authorization #D 38 185 10 001).” left out
Two-electrode voltage-clamp (TEVC) recordings were performed automatically with HiClamp robots (MultiChannel Systems). […] Ligand effects were measured in high potassium concentration buffer with the membrane potential clamped to −50 mV and at 19°C.
Change of potassium current induced by ligand was calculated either with the barium-sensitive currents as a 0-reference for Kcv-based ICCRs or with the currents in ND96 for mTREK-1 ICCRs. […]

D2_K+09M2-25 = details: read-out: EC50 on the equivalent Kir6.2 ICCR (D2_K+09M2-25); ref Moreau et al., 2008; cited from earlier work
D2_T+09M2-43 = D2_T+09M2-43 (UniProt P14416+P97438); details: TEVC
Sequence of D2_T+09M2-43 (P14416+P97438 fused): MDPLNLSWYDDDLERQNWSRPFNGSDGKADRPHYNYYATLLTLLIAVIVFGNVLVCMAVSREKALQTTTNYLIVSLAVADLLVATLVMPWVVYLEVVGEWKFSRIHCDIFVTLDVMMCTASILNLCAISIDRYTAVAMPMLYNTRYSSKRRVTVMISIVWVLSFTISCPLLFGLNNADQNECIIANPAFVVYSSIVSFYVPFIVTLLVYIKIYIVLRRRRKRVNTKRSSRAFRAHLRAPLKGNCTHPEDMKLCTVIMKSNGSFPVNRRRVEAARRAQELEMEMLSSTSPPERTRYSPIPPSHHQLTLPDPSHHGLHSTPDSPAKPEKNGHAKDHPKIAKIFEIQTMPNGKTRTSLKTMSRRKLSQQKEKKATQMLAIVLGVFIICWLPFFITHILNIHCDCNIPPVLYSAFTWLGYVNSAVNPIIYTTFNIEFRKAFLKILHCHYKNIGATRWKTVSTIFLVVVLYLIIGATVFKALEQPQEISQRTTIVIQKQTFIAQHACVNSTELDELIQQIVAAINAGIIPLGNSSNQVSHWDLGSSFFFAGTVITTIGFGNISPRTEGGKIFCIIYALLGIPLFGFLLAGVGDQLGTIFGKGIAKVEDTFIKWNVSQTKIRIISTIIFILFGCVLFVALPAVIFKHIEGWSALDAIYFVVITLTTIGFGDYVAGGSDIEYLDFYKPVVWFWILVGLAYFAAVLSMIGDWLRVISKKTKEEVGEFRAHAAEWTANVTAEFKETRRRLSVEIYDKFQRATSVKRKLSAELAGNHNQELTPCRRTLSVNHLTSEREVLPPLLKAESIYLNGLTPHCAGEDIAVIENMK
Protocol: as §2, §3, §4

[3] = target: unfused D2L and mTREK-1 (D2+mTREK-1) (Homo sapiens, UniProt P14416); details: control with co-expression of the unfused proteins, mean ± SEM
Sequence of unfused D2L and mTREK-1 (D2+mTREK-1) (P14416 whole entry, the tested form may be a part): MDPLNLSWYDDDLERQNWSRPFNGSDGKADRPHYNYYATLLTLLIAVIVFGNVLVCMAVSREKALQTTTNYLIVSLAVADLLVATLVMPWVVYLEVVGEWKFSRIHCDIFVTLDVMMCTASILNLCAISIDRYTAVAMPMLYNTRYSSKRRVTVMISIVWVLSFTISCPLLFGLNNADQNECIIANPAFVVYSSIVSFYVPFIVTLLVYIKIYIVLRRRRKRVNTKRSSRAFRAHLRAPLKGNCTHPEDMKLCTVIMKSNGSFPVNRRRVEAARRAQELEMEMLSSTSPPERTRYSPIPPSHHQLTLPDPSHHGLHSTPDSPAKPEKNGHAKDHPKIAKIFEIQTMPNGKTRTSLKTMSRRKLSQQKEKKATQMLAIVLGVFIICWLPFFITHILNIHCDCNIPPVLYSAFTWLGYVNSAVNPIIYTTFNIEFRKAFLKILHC
Protocol: as §2, §3, §4

[4] = system: Kir3.4T co-expressed with D2_Kcv-00-03; details: TEVC, Xenopus oocytes
Protocol: as §2, §3, §4

D2_T-00-43 = D2_T-00-43 (UniProt P14416+P97438); details: weak inhibition, mean ± SEM
Sequence of D2_T-00-43 (P14416+P97438 fused): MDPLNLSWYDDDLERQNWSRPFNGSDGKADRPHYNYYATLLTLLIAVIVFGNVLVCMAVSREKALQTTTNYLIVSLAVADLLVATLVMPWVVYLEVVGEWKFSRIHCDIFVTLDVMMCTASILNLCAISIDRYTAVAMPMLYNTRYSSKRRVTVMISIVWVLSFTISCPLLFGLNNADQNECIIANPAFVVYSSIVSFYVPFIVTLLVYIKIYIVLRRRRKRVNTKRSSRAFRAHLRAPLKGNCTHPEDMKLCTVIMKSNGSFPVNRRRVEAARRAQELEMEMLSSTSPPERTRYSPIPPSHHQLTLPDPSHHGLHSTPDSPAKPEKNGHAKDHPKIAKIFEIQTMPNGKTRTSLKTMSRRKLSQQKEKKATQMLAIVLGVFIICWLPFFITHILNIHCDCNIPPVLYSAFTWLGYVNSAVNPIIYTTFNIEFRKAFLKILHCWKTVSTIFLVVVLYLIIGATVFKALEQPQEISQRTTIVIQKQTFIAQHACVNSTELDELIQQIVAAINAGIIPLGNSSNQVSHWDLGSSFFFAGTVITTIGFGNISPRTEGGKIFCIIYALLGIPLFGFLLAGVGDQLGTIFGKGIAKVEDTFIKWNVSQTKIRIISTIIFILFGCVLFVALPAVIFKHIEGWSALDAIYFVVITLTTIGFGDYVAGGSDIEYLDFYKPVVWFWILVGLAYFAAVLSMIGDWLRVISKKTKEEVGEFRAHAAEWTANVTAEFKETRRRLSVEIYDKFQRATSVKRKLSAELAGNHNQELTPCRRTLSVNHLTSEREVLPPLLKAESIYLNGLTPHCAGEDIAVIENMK
Protocol: as §2, §3, §4

[5] = concentration-effect curve, TEVC

Compound: CN1[C@@H]2CC[C@H]1C[C@@H](OC(=O)C(CO)c1ccccc1)C2 (stereo partly drawn) [atropine]
- effect of atropine co-application on the ACh response of M2_Kcv-09-03 (M2_Kcv-09-03; 1 μM atropine co-applied with ACh 5 μM): almost entirely abolished the ACh response
- effect of atropine co-application on ACh-induced activation of M2_T-00-43 (M2_T-00-43 [1]): inhibited ACh-induced activation

Compound: C[N+](C)(C)CCOC(N)=O [CCh, carbachol]
- Hill coefficient (nH) on M2_Kcv-09-03 (M2_Kcv-09-03; [5]): 0.98
- Hill coefficient (nH) on M2_T-00-43 (M2_T-00-43 [1]; [5]): 0.97
- IC50 (M2_Kir6.2-09-25): 1200 nM

Compound: c1ccc(-c2nn[nH]n2)c(Nc2cccc3c2CCCC3)c1 [BL1249]
- activation of unfused truncated mTREK-1 −43 by BL1249, compared with WT channel (mTREK-1 −43): lower activation
- activation of M2_T-00-43: increase of the current (M2_T-00-43 [2]; 10 μM BL1249, mean ± SEM): 880% ± 190%

Compound: oxytocin
- response of OXTR[T4L]_Kcv-42-03 to oxytocin (OXTR[T4L]_Kcv-42-03): did not induce any response

Compound: NCCc1ccc(O)c(O)c1 [dopamine]
- EC50 (D2_K+09M2-25): 400 nM
- activation: % of current change induced by 5 μM dopamine on D2_T+09M2-43 (D2_T+09M2-43; 5 μM, Xenopus oocytes, mean ± SEM): 12.1% ± 1.7%
- Hill coefficient (nH) on D2_T+09M2-43 (D2_T+09M2-43; concentration-effect curve): 0.76
- % of current change induced by 5 μM dopamine on unfused D2 + mTREK-1 [3]: −2.2% ± 1.3%
- G protein activation (Kir3.4T) by D2_Kcv-00-03 upon dopamine application [4]: triggers the activation of the endogenous Gi/o proteins
- % of current change induced by 5 μM dopamine on D2_T-00-43 (D2_T-00-43): −4.1% ± 0.6%

Compound: spadin
- inhibition of BL1249 activation of M2_T-00-43 (M2_T-00-43 [2]; 1 μM spadin with 10 μM BL1249, mean ± SEM): 56.8% ± 9.1%
